Tested on: MIA-PACA2 pancreatic cancer cell lines
Test: Cell proliferation assay (CellTiter 96 AQueous One)
Assay type: cell-based
Conditions: Homo sapiens, MIA PaCa-2; MIA-PACA2, same assay as the % inhibition (standard conditions)
Method: Cell lines: Tumor-derived pancreatic cancer cell lines MIA-PACA2 were purchased from ATCC and grown in complete DMEM-High Glucose medium supplemented with penicillin (100 U/mL), streptomycin (100 μg/mL), and 10% heat-inactivated FBS at 37° C. in a humidified incubator with 5% CO2.
Method: Cells are plated at 1000 cells/well density in 96-wells plate, starved ON, and the next day tested small molecules are added to the cells in the final concentration of 30 μM with 0.3% DMSO 3 hours prior to 10% FBS addition. After serum addition cells are incubated for 6 days at 37° C. in a humidified incubator with 5% CO2. For IC50 value determination, serial dilutions of compounds were added to cells under the same conditions.
Assay: At the end of the incubation period, cell cultures are tested using the CellTiter 96® AQueous One Solution Cell Proliferation Assay kit (Promega Corporation, Madison, Wis.) according to the manufacturer specifications. Briefly, assay is performed by adding 20 μl of the CellTiter 96 Aqueous One Solution Reagent directly to culture wells, followed by for 1-4 hours incubation at 37° C. in a humidified incubator with 5% CO2. At the end of incubation time, absorbance at 492 nm is recorded with the 96-well plate reader Eppendorf AF2200, and degree of small molecule-dependent proliferation inhibition is calculated from raw data assuming No Serum cells value as 100%.

Q: Which IC50 does the source give for `Oc1nc(-c2ccccn2)nc2c(Br)csc12` [drawing 1562] here?
A: 501 to 1000 nM

Q: `O=C(c1csc2c(O)nc(-c3ccccn3)nc12)N1CCN(c2ccccc2)CC1` [drawing 1569] was tested. Which IC50 did it give?
A: 100 to 500 nM

Q: For `Oc1nc(-c2ccccn2)nc2c(-c3ccccc3)csc12` [drawing 1581], which IC50 is on record?
A: 100 to 500 nM

Q: Which IC50 does the source give for `Oc1nc(-c2ccccn2)nc2c(-c3ccccc3Cl)csc12` [drawing 1582] here?
A: 100 to 500 nM

Q: With `Oc1nc(-c2ccccn2)nc2scc(Br)c12` [drawing 1589] as the compound, how does the IC50 read?
A: 100 to 500 nM

Same assay, conditions: Homo sapiens, MIA PaCa-2; at 30 μM, MIA-PACA2

Q: Which inhibition at 30 µM does the source give for `COc1ccc(CN(CC[S+]([O-])c2cc(Cl)ccc2Cl)C2CC2)cc1` (stereo not drawn) [drawing 1530] here?
A: 51 to 75%

Q: With `CCCOc1ccc2ccccc2c1CN(C)S(=O)(=O)N1CC(C)OC(C)C1` (stereo not drawn) [drawing 1531] as the compound, how does the inhibition at 30 µM read?
A: 76 to 100%

Q: With `O=S(=O)(Oc1cc(C(F)(F)F)cc(C(F)(F)F)c1)N1CCc2ccccc2C1` [drawing 1532] as the compound, how does the inhibition at 30 µM read?
A: 25 to 50%

Q: With `COC(=O)C(C)CN(Cc1cc(Br)ccc1[N+](=O)[O-])C1CC1` (stereo not drawn) [drawing 1534] as the compound, how does the inhibition at 30 µM read?
A: 1 to 25%

Q: How did the inhibition at 30 µM turn out when `CC(C1CC1)N(CC(F)(F)F)C(=O)Cc1ccc(-c2ccccc2)cc1` (stereo not drawn) [drawing 1535] was run?
A: 76 to 100%

Q: With `COC(=O)C(C)CN(Cc1ccccc1)c1nc(C(F)(F)F)ccc1C#N` (stereo not drawn) [drawing 1536] as the compound, how does the inhibition at 30 µM read?
A: 51 to 75%

Q: For `N#CC1(c2ccc(C(=O)N3CCCC3CO)cc2)CC1` (stereo not drawn) [drawing 1537], which inhibition at 30 µM is on record?
A: 51 to 75%

Q: Which inhibition at 30 µM does the source give for `CCN(CC)S(=O)(=O)c1ccc(NCCOC)c(C(=O)NCCSCc2ccc(C)cc2)c1` [drawing 1538] here?
A: 76 to 100%

Q: `CSc1nc(C2CC2)cc(C(=O)NCCc2ccc(S(=O)(=O)NC(=O)c3cc(C4CC4)nc(SC)c3C#N)cc2)c1C#N` [drawing 1539] was tested. Which inhibition at 30 µM did it give?
A: 1 to 25%

Q: Which inhibition at 30 µM does the source give for `CC(C)C1=C(O)C2(CC2c2ccc(-c3ccccc3)cc2)C(C)CC1` (stereo not drawn) [drawing 1540] here?
A: 76 to 100%

Q: `Cc1cccc(C)c1OCCOC(=O)c1ccccc1SCCOc1c(C)cccc1C` [drawing 1541] was tested. Which inhibition at 30 µM did it give?
A: 51 to 75%

Q: Which inhibition at 30 µM does the source give for `Oc1nc(-c2ccccn2)nc2c1CCCN2` [drawing 1542] here?
A: 1 to 25%

Q: How did the inhibition at 30 µM turn out when `O=C(COc1ccccc1)N1CCCc2c(O)nc(-c3ccccn3)nc21` [drawing 1543] was run?
A: 76 to 100%

Q: For `COc1ccc(COCC(=O)N2CCCc3c(O)nc(-c4ccccn4)nc32)cc1` [drawing 1544], which inhibition at 30 µM is on record?
A: 76 to 100%

Q: `COc1ccc(CCC(=O)N2CCCc3c(O)nc(-c4ccccn4)nc32)cc1` [drawing 1545] was tested. Which inhibition at 30 µM did it give?
A: 76 to 100%

Q: Which inhibition at 30 µM does the source give for `O=C(c1ccn(-c2ccccc2)n1)N1CCCc2c(O)nc(-c3ccccn3)nc21` [drawing 1546] here?
A: 76 to 100%

Q: `CS(=O)(=O)N1CCCc2cc(C(=O)N3CCCc4c(O)nc(-c5ccccn5)nc43)ccc21` [drawing 1547] was tested. Which inhibition at 30 µM did it give?
A: 76 to 100%

Q: For `O=C(c1ccc(=O)[nH]n1)N1CCCc2c(O)nc(-c3ccccn3)nc21` [drawing 1548], which inhibition at 30 µM is on record?
A: 76 to 100%

Q: For `CS(=O)(=O)c1cccc(C(=O)N2CCCc3c(O)nc(-c4ccccn4)nc32)c1` [drawing 1549], which inhibition at 30 µM is on record?
A: 1 to 25%

Q: `COCCCC(=O)N1CCCc2c(O)nc(-c3ccccn3)nc21` [drawing 1550] was tested. Which inhibition at 30 µM did it give?
A: 76 to 100%

Q: Which inhibition at 30 µM does the source give for `O=C(c1cocn1)N1CCCc2c(O)nc(-c3ccccn3)nc21` [drawing 1551] here?
A: 1 to 25%

Q: How did the inhibition at 30 µM turn out when `O=S(=O)(CCc1ccccc1)N1CCCc2c(O)nc(-c3ccccn3)nc21` [drawing 1552] was run?
A: 1 to 25%

Q: How did the inhibition at 30 µM turn out when `O=S(=O)(c1ccccc1)N1CCCc2c(O)nc(-c3ccccn3)nc21` [drawing 1553] was run?
A: 25 to 50%

Q: With `O=C(OCCc1ccccc1)N1CCCc2c(O)nc(-c3ccccn3)nc21` [drawing 1554] as the compound, how does the inhibition at 30 µM read?
A: 76 to 100%

Q: Which inhibition at 30 µM does the source give for `O=C(CC(c1ccccc1)c1ccccc1)N1CCCc2c(O)nc(-c3ccccn3)nc21` [drawing 1555] here?
A: 76 to 100%

Q: For `O=C(CCCc1cccnc1)N1CCCc2c(O)nc(-c3ccccn3)nc21` [drawing 1556], which inhibition at 30 µM is on record?
A: 76 to 100%

Q: How did the inhibition at 30 µM turn out when `Nc1nc(O)c2scc(Br)c2n1` [drawing 1557] was run?
A: 1 to 25%

Q: How did the inhibition at 30 µM turn out when `CC1CCN(C(=O)c2csc3c(O)nc(N)nc23)CC1` [drawing 1558] was run?
A: 1 to 25%

Q: How did the inhibition at 30 µM turn out when `Nc1nc(O)c2scc(C(=O)N3CCC(N4CCCC4=O)CC3)c2n1` [drawing 1559] was run?
A: 25 to 50%

Q: For `Nc1nc(O)c2scc(C(=O)NCCc3cccnc3)c2n1` [drawing 1560], which inhibition at 30 µM is on record?
A: 1 to 25%

Q: For `Nc1nc(O)c2scc(C(=O)N3CCc4ccccc4CC3)c2n1` [drawing 1561], which inhibition at 30 µM is on record?
A: 1 to 25%

Q: Which inhibition at 30 µM does the source give for `Oc1nc(-c2ccccn2)nc2c(Br)csc12` [drawing 1562] here?
A: 76 to 100%

Q: Which inhibition at 30 µM does the source give for `CC1CCN(C(=O)c2csc3c(O)nc(-c4ccccn4)nc23)CC1` [drawing 1563] here?
A: 76 to 100%

Q: Which inhibition at 30 µM does the source give for `COCC1CCN(C(=O)c2csc3c(O)nc(-c4ccccn4)nc23)CC1` [drawing 1564] here?
A: 76 to 100%

Q: For `CCOCCC1CCN(C(=O)c2csc3c(O)nc(-c4ccccn4)nc23)CC1` [drawing 1565], which inhibition at 30 µM is on record?
A: 76 to 100%

Q: For `COCCCC1CCN(C(=O)c2csc3c(O)nc(-c4ccccn4)nc23)CC1` [drawing 1566], which inhibition at 30 µM is on record?
A: 76 to 100%

Q: `O=C(c1csc2c(O)nc(-c3ccccn3)nc12)N1CCC(N2CCOCC2)CC1` [drawing 1567] was tested. Which inhibition at 30 µM did it give?
A: 1 to 25%

Q: How did the inhibition at 30 µM turn out when `O=C(c1csc2c(O)nc(-c3ccccn3)nc12)N1CCC(N2CCCC2=O)CC1` [drawing 1568] was run?
A: 1 to 25%

Q: For `O=C(c1csc2c(O)nc(-c3ccccn3)nc12)N1CCN(c2ccccc2)CC1` [drawing 1569], which inhibition at 30 µM is on record?
A: 76 to 100%

Q: With `O=C(c1csc2c(O)nc(-c3ccccn3)nc12)N1CCN(c2ccncc2)CC1` [drawing 1570] as the compound, how does the inhibition at 30 µM read?
A: 76 to 100%

Q: Which inhibition at 30 µM does the source give for `O=C(c1csc2c(O)nc(-c3ccccn3)nc12)N1CCC(c2cccnc2)CC1` [drawing 1571] here?
A: 76 to 100%

Q: Which inhibition at 30 µM does the source give for `CC1(O)CCN(C(=O)c2csc3c(O)nc(-c4ccccn4)nc23)CC1` [drawing 1572] here?
A: 76 to 100%

Q: With `CC1(N)CCN(C(=O)c2csc3c(O)nc(-c4ccccn4)nc23)CC1` [drawing 1573] as the compound, how does the inhibition at 30 µM read?
A: 1 to 25%

Q: `CCOC(=O)NC1CCN(C(=O)c2csc3c(O)nc(-c4ccccn4)nc23)CC1` [drawing 1574] was tested. Which inhibition at 30 µM did it give?
A: 51 to 75%

Q: With `COCCOCCN(C)C(=O)c1csc2c(O)nc(-c3ccccn3)nc12` [drawing 1575] as the compound, how does the inhibition at 30 µM read?
A: 25 to 50%

Q: How did the inhibition at 30 µM turn out when `O=C(c1csc2c(O)nc(-c3ccccn3)nc12)N(CCO)CCOCCO` [drawing 1576] was run?
A: 1 to 25%

Q: With `CN(CCc1ccncc1)C(=O)c1csc2c(O)nc(-c3ccccn3)nc12` [drawing 1577] as the compound, how does the inhibition at 30 µM read?
A: 25 to 50%

Q: Which inhibition at 30 µM does the source give for `O=C(NCCc1cccnc1)c1csc2c(O)nc(-c3ccccn3)nc12` [drawing 1578] here?
A: 76 to 100%

Q: `O=C(c1csc2c(O)nc(-c3ccccn3)nc12)N1CCc2ccccc2CC1` [drawing 1579] was tested. Which inhibition at 30 µM did it give?
A: 76 to 100%

Q: For `Nc1nc(O)c2scc(-c3ccccc3)c2n1` [drawing 1580], which inhibition at 30 µM is on record?
A: 25 to 50%

Q: With `Oc1nc(-c2ccccn2)nc2c(-c3ccccc3)csc12` [drawing 1581] as the compound, how does the inhibition at 30 µM read?
A: 76 to 100%

Q: `Oc1nc(-c2ccccn2)nc2c(-c3ccccc3Cl)csc12` [drawing 1582] was tested. Which inhibition at 30 µM did it give?
A: 76 to 100%

Q: How did the inhibition at 30 µM turn out when `Oc1nc(-c2ccccn2)nc2c1ncn2-c1ccccc1` [drawing 1583] was run?
A: 25 to 50%

Q: `Oc1nc(-c2ccccn2)nc2c1ncn2-c1ccccn1` [drawing 1584] was tested. Which inhibition at 30 µM did it give?
A: 76 to 100%

Q: `COc1ccc(COCC(=O)Nc2ccnc(-c3ccccn3)n2)cn1` [drawing 1585] was tested. Which inhibition at 30 µM did it give?
A: 1 to 25%

Q: With `N#Cc1ccc(CC(=O)Nc2ccnc(-c3ccccn3)n2)cc1` [drawing 1586] as the compound, how does the inhibition at 30 µM read?
A: 76 to 100%

Q: Which inhibition at 30 µM does the source give for `Brc1csc2nc(-c3ccccn3)nc(N3CCOCC3)c12` [drawing 1587] here?
A: 25 to 50%

Q: How did the inhibition at 30 µM turn out when `c1ccc(-c2nc(N3CCOCC3)c3ccsc3n2)nc1` [drawing 1588] was run?
A: 51 to 75%

Q: `Oc1nc(-c2ccccn2)nc2scc(Br)c12` [drawing 1589] was tested. Which inhibition at 30 µM did it give?
A: 76 to 100%

Q: Which inhibition at 30 µM does the source give for `Oc1nc(-c2ccccn2)nc2sccc12` [drawing 1590] here?
A: 76 to 100%

Q: With `c1ccc(-c2nc(NCC3CCCO3)c3ccsc3n2)nc1` (stereo not drawn) [drawing 1591] as the compound, how does the inhibition at 30 µM read?
A: 76 to 100%

From patent publication US10940139B2, “Compounds that interact with the Ras superfamily for the treatment of cancers, inflammatory diseases, rasopathies, and fibrotic disease” (Shy Therapeutics LLC, priority 2017, dated 2021)
